Results taken from patent US11959083B2, “Immunosuppression-reverting oligonucleotides inhibiting the expression of CD39” (Secarna Pharmaceuticals GmbH & Co. KG, priority 2016, dated 2024).
pIC50: −log10 of the molar value. l = locked nucleic acid (LNA); d = 2'-deoxy (DNA)

How the values were obtained:
Assay type in all cases: cell-based, human
hCD39 mRNA [1] = assay: hCD39 mRNA knockdown efficacy screen in A-172 cells (single dose, gymnotic delivery, QuantiGene Singleplex); settings: 10 μM, 3 days; for Mean hCD39 mRNA expression (relative to untreated cells set as 1): first screening round; for Mean hCD39 mRNA expression (relative to untreated cells set as 1) / Relative hCD39 mRNA expression (compared to non-treated cells): normalized to HPRT1; for Relative hCD39 mRNA expression (compared to non-treated cells): second screening round; for Residual hCD39 mRNA expression relative to untreated cells (set as 1): third screening round
How it was run: (§1)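 Antisense oligonucleotides given once at 10 μM without transfection reagent (gymnotic) to HDLM-2 or A-172 cells for 3 days. hCD39 mRNA measured by QuantiGene Singleplex, normalized to HPRT1 and expressed relative to untreated cells; triplicate means.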

hCD39 mRNA [2] = assay: hCD39 mRNA knockdown efficacy screen in HDLM-2 cells (single dose, gymnotic delivery, QuantiGene Singleplex); set-up: key to Relative hCD39 mRNA expression (compared to non-treated cells): *: values are below detection limit; settings: 10 μM, 3 days; for Mean hCD39 mRNA expression normalized to HPRT1 relative to untreated control = 1: first screening round; for Relative hCD39 mRNA expression (compared to non-treated cells): second screening round, normalized to HPRT1; for Residual hCD39 mRNA expression relative to untreated cells (set as 1): third screening round
How it was run: as §1

hCD39 mRNA [3] = assay: IC50 determination / concentration-dependent hCD39 mRNA knockdown in HDLM-2 cells; settings: for mRNA inhibition: HDLM-2, 3 days; for pIC50: HDLM-2 cells, hCD39 mRNA, 3 days
Method: HDLM-2 cells were treated for 3 days with the indicated concentration of the respective antisense oligonucleotide. Residual hCD39 expression is depicted compared to untreated control cells. hCD39 mRNA expression values were normalized to expression of the housekeeping gene HPRT1.
The antisense oligonucleotide A04040H (SEQ ID No. 3) that had shown potent activity in the first and second screening round was used as reference. HDLM-2 cells treated for 3 days with the indicated concentrations of the respective antisense oligonucleotide. hCD39 mRNA expression values were normalized to expression of the housekeeping gene HPRT1. Residual hCD39 mRNA expression relative to untreated cells (set as 100) is depicted. Depicted is the mean of triplicate wells+/−SD.
In a second experiment the concentration-dependency of effects and the IC50 values of hCD39 antisense oligonucleotides A04010H (SEQ ID No.14), A04016H (SEQ ID No.20), A04017H (SEQ ID No.21), A04020H (SEQ ID No. 24) and A04026H (SEQ ID No.30) were tested. […] HDLM-2 cells were treated with titrated amounts of the respective antisense oligonucleotide (concentrations: 10 μM, 3.3 μM, 1.1 μM, 370 nM, 120 nM, 41 nM, 14 nM, 4.5 nM). hCD39 mRNA expression was analyzed after three days of treatment. FIG. 5 and Table 9 depicts the concentration-dependent reduction of hCD39 mRNA expression by the selected hCD39 antisense oligonucleotides.
The hCD39 antisense oligonucleotides A04051H (SEQ ID No.88), A04052H (SEQ ID No.89), A04053H ([…]), A04056H (SEQ ID No.92), A04059H (SEQ ID No.94), A04060H (SEQ ID No.95), and A04061H (SEQ ID No.96) had shown potent single-dose activity in both HDLM-2 and A-172 cells. […] The antisense oligonucleotide A04040H that had shown potent activity in the first screening round was used as reference. hCD39 mRNA expression was analyzed after 3 days of treatment. FIG. 7 depicts the concentration-dependent reduction of hCD39 expression by hCD39 antisense oligonucleotides.

[4] = first screening round (Table 8)
[5] = second screening round (Table 9)
[6] = third screening round (Table 12)

| Substance | Mean hCD39 mRNA expression (relative to untreated cells set as 1) (hCD39 mRNA [1]) | Relative hCD39 mRNA expression (compared to non-treated cells) (hCD39 mRNA [1]) | Mean hCD39 mRNA expression normalized to HPRT1 relative to untreated control = 1 (hCD39 mRNA [2]) | Relative hCD39 mRNA expression (compared to non-treated cells) (hCD39 mRNA [2]) | mRNA inhibition (hCD39 mRNA [3]; 0.0045 μM, Table 8) [%] | mRNA inhibition (hCD39 mRNA [3]; 0.013 μM, Table 8) [%] | mRNA inhibition (hCD39 mRNA [3]; 0.04 μM, Table 8) [%] | mRNA inhibition (hCD39 mRNA [3]; 0.12 μM, Table 8) [%] | mRNA inhibition (hCD39 mRNA [3]; 0.4 μM, Table 8) [%] | mRNA inhibition (hCD39 mRNA [3]; 1.1 μM, Table 8) [%] | mRNA inhibition (hCD39 mRNA [3]; 3.3 μM, Table 8) [%] | mRNA inhibition (hCD39 mRNA [3]; 0.0045 μM, Table 9) [%] | mRNA inhibition (hCD39 mRNA [3]; 0.013 μM, Table 9) [%] | mRNA inhibition (hCD39 mRNA [3]; 0.04 μM, Table 9) [%] | mRNA inhibition (hCD39 mRNA [3]; 0.12 μM, Table 9) [%] | mRNA inhibition (hCD39 mRNA [3]; 0.4 μM, Table 9) [%] | mRNA inhibition (hCD39 mRNA [3]; 1.1 μM, Table 9) [%] | mRNA inhibition (hCD39 mRNA [3]; 3.3 μM, Table 9) [%] | mRNA inhibition (hCD39 mRNA [3]; 10 μM, Table 9) [%] | pIC50 (hCD39 mRNA [3]; [5]) | further results |
| --- | --- | --- | --- | --- | --- | --- | --- | --- | --- | --- | --- | --- | --- | --- | --- | --- | --- | --- | --- | --- | --- |
| +A*+C*C*C*T*G*A*G*T*T*G*T*A*A*C*+T (antisense ACCCTGAGTTGTAACT; sugars from the 5' end l2 d13 l1, all phosphorothioate, methylation of C not given here) [A04033H] | 0.28 | 0.14 | 0.10 | * | 3.05 | −3.30 | 24.10 | 46.98 | 70.74 | 83.81 | 92.79 |  |  |  |  |  |  |  |  |  | mRNA inhibition (hCD39 mRNA [3]; 10 μM, Table 8): 98.02%; pIC50 (hCD39 mRNA [3]; [4]): 6.92 |
| +C*+T*+T*G*A*A*C*A*C*T*G*C*+G*+A*+T (antisense CTTGAACACTGCGAT; sugars from the 5' end l3 d9 l3, all phosphorothioate, methylation of C not given here) [A04017H] | 0.11 | 0.11 | 0.11 | 0.11 |  |  |  |  |  |  |  | 33.85 | 49.62 | 62.92 | 79.03 | 91.63 | 97.05 | 98.95 | 99.37 | 7.48 |  |
| +G*+A*G*T*G*C*C*T*G*A*T*C*C*+T*+T (antisense GAGTGCCTGATCCTT; sugars from the 5' end l2 d11 l2, all phosphorothioate, methylation of C not given here) [A04010H] | 0.10 | 0.11 | 0.17 | 0.15 |  |  |  |  |  |  |  | 20.11 | 24.68 | 52.80 | 76.16 | 90.86 | 95.99 | 98.10 | 98.77 | 7.29 |  |
| +T*+T*+A*C*G*T*T*C*A*C*T*A*C*C*+T*+T*+C (antisense TTACGTTCACTACCTTC; sugars from the 5' end l3 d11 l3, all phosphorothioate, methylation of C not given here) [A04044H] | 0.07 | 0.04 | 0.05 | * | 12.17 | 26.25 | 45.88 | 68.28 | 82.63 | 91.19 | 96.20 |  |  |  |  |  |  |  |  |  | mRNA inhibition (hCD39 mRNA [3]; 10 μM, Table 8): 98.71%; pIC50 (hCD39 mRNA [3]; [4]): 7.33 |
| +G*+G*+T*T*T*G*T*G*T*G*A*G*A*G*C*+T (antisense GGTTTGTGTGAGAGCT; sugars from the 5' end l3 d12 l1, all phosphorothioate, methylation of C not given here) [A04060H] |  |  |  |  |  |  |  |  |  |  |  |  |  |  |  |  |  |  |  |  | Residual hCD39 mRNA expression relative to untreated cells (set as 1) (hCD39 mRNA [1]): 0.08; Residual hCD39 mRNA expression relative to untreated cells (set as 1) (hCD39 mRNA [2]): 0.01; mRNA inhibition (hCD39 mRNA [3]; 0.45 nM, Table 12): 0.00%; mRNA inhibition (hCD39 mRNA [3]; 1.3 nM, Table 12): 0.00%; mRNA inhibition (hCD39 mRNA [3]; 4 nM, Table 12): 0.00%; mRNA inhibition (hCD39 mRNA [3]; 12 nM, Table 12): 0.00%; mRNA inhibition (hCD39 mRNA [3]; 40 nM, Table 12): 49.14%; mRNA inhibition (hCD39 mRNA [3]; 110 nM, Table 12): 88.34%; mRNA inhibition (hCD39 mRNA [3]; 330 nM, Table 12): 96.71%; mRNA inhibition (hCD39 mRNA [3]; 1000 nM, Table 12): 97.82%; pIC50 (hCD39 mRNA [3]; [6]): 7.69 |
| +A*+G*+A*G*T*G*C*C*T*G*A*T*C*+C*+T*+T (antisense AGAGTGCCTGATCCTT; sugars from the 5' end l3 d10 l3, all phosphorothioate, methylation of C not given here) [A04051H] |  |  |  |  |  |  |  |  |  |  |  |  |  |  |  |  |  |  |  |  | Residual hCD39 mRNA expression relative to untreated cells (set as 1) (hCD39 mRNA [1]): 0.34; Residual hCD39 mRNA expression relative to untreated cells (set as 1) (hCD39 mRNA [2]): 0.02; mRNA inhibition (hCD39 mRNA [3]; 0.45 nM, Table 12): 30.83%; mRNA inhibition (hCD39 mRNA [3]; 1.3 nM, Table 12): 15.36%; mRNA inhibition (hCD39 mRNA [3]; 4 nM, Table 12): 23.62%; mRNA inhibition (hCD39 mRNA [3]; 12 nM, Table 12): 23.14%; mRNA inhibition (hCD39 mRNA [3]; 40 nM, Table 12): 43.66%; mRNA inhibition (hCD39 mRNA [3]; 110 nM, Table 12): 70.34%; mRNA inhibition (hCD39 mRNA [3]; 330 nM, Table 12): 86.77%; mRNA inhibition (hCD39 mRNA [3]; 1000 nM, Table 12): 92.82%; pIC50 (hCD39 mRNA [3]; [6]): 7.16 |
| +G*+A*+T*A*G*T*T*T*C*C*A*A*T*+A*+C*+C (antisense GATAGTTTCCAATACC; sugars from the 5' end l3 d10 l3, all phosphorothioate, methylation of C not given here) [A04026H] | 0.07 | 0.08 | 0.03 | 0.03 |  |  |  |  |  |  |  | 29.98 | 29.02 | 54.32 | 77.36 | 92.99 | 96.69 | 99.20 | 98.59 | 7.21 |  |
| +G*+T*+A*A*G*C*C*C*T*G*A*T*+G*+T*+T (antisense GTAAGCCCTGATGTT; sugars from the 5' end l3 d9 l3, all phosphorothioate, methylation of C not given here) [A04019H] | 0.03 | 0.03 | 0.08 | 0.08 | −11.65 | 8.19 | 38.76 | 69.42 | 88.83 | 95.46 | 97.89 | 22.53 | 49.52 | 62.95 | 82.63 | 93.96 | 97.94 | 99.04 | 99.00 | 7.94 | Residual hCD39 mRNA expression relative to untreated cells (set as 1) (hCD39 mRNA [1]): 0.00; Residual hCD39 mRNA expression relative to untreated cells (set as 1) (hCD39 mRNA [2]): 0.01; mRNA inhibition (hCD39 mRNA [3]; 10 μM, Table 8): 98.39%; pIC50 (hCD39 mRNA [3]; [4]): 7.40 |
